{
  "source": "patent US20230011536A1",
  "about": "“MESENCHYMAL STEM CELL DERIVED EXTRACELLULAR VESICLES LOADED WITH AT LEAST ONE PHOTOSENSITIZER AND USES THEREOF FOR THE TREATMENT OF PERITONEAL CARCINOMATOSIS” (priority 2019, published 2023)",
  "key": {"[1]": {"test": "mTHPC biodistribution after intraperitoneal injection, colorectal peritoneal carcinomatosis model (CT26)", "assay_type": "in vivo, mouse", "conditions": "for mTHPC level in tumor tissue: 0.5 mg/kg mTHPC, mean±SEM", "experimental": "All animal experiments were performed in agreement with institutional animal use and care after approval by the local Ethics Committee (registration number for the carcinomatosis model experiment: APAFIS-8617). Six-week-old female BALB/c (provided by Charles River, Arbresle, France and weighing 18 g) and C57BL/6 mice were provided with food and water ad libidum, for colon and ovarian model respectively. The animals were allowed to acclimate to the facility for at least one week before being used for experiments. Colorectal model was induced with an intraperitoneal injection of 5·10^4 CT26 cells resuspended in a volume of 200 μL of physiological saline per inoculum. […] Between the days of IP injection and sacrifice, the wellbeing of the mice was checked twice a week through the search of any sign of pain, dehydration, changing in behavior or loss of weight.\nBriefly, tumor-bearing animals (with colorectal carcinomatosis) were injected at 0.5 mg/kg mTHPC intraperitoneally. Either at 4 h, 15 h, 24 h or 48 h mice were sacrificed to determine mTHPC accumulation in different organs: tumors, liver, spleen, kidney, intestine, peritoneum, skin and lung. First, organs were weighed and grinded in PBS (1 mL per 10 mg of organ). The amount of 0.8 mL of MeOH per 10 mg of organ was added to the solution and vortexed; then, 0.8 mL of chloroform was added. The solution was centrifuged at 1400 rpm for 10 minutes to allow the separation of the aqueous and chloroform phases. The bottom layer consisting of the chloroform and the solubilized mTHPC was transferred for spectroscopy measurements. Fluorescence emission spectra were obtained by a fluorescence spectrophotometer using 415 nm excitation wavelength."}, "[2]": {"system": "colorectal peritoneal carcinomatosis (CT26)", "test": "Early effectiveness of PDT in mouse model of colorectal peritoneal carcinomatosis (histology, TUNEL, immunostaining 48 h after illumination)", "assay_type": "in vivo", "protocol": "(§1) After 24 h, animals from both groups were anesthetized with isoflurane, a midline laparotomy was performed to allow invasive laser irradiation, and were then irradiated using a 650 nm laser at a fluence of 10 J/cm^2 (100 mW/cm^2 for 100 s). Two irradiations spots were successively realized to allow an illumination of the entire cavity and drops of saline were used to keep the tissue moist. A heating device was used to keep body temperature stable throughout the treatment until the animal was woken up. The peritoneum and the skin were separately sutured immediately after irradiation.\n(§2) Treatment injection was made 12 days after IP inoculation of CT26, followed by invasive illumination 24 hours after. Six groups were performed for each experimentation: (i) no treatment, (ii) laser, (iii) free mTHPC, (iv) EVs-mTHPC, (v) free mTHPC+laser, (vi) EVs-mTHPC+laser.\nEarly effectiveness was evaluated 48 hours after illumination to compare: tumoral necrosis, apoptosis, macrophages invasion, lymphocyte recruitment, vascular damage and proliferative index result according to treatment. Long-term effectiveness consisted on a survival analysis function of the treatment.\nFor immunohistochemical detection of the chosen markers for tumor tissue, sections were deparaffined and subject to antigen retrieval methods validated for each of the primary antibodies.\nAntibody expression for each analysis was evaluated by the mean number of positive cells in 3 randomly chosen areas (×40 magnification) for 10-15 nodes by treatment. Quantitative analysis of immunostaining preparation was performed using the color segmentation ImageJ plugin developed by the Biomedical Imaging Group at the EPFL, Switzerland.\nTUNEL assay: Cell apoptosis in tumour was detected by a FragEL DNA fragmentation (TUNEL) detection kit (Sigma, Roche, ref 11684795910). In brief the cryostat section were permeabilized with 0.1% Triton and 0.1% (citrate de sodium) in 10×PBS. The slides were then labeled with a TdT reaction mixture for 60 min and were mounted with a mounting solution containing 4′, 6-diamidino-2-phenylindole (DAPI). The apoptotic cells (green) and cell nucleus (blue) was examined using a fluorescence microscopy. The percentage of apoptotic cells was assessed in 2 randomly fields at 40× magnification. The apoptotic index was calculated with image J.\nFor image-based quantitative analysis of blood vessels, immunofluorescence detection of CD31 was made after one hour incubation with antiCD31 antibody (BD 553370,1/50) and 45 min incubation with second antibody (Alexa Fluor® 488, ThermoFisher, A11006, dilution 1/200)"}, "[3]": {"system": "colorectal peritoneal carcinomatosis (CT26)", "test": "Survival analysis after PDT in colorectal peritoneal carcinomatosis model", "assay_type": "in vivo, mouse", "protocol": "as §1, §2\nAnother 10 or 11 mice were selected from each group to evaluate the overall survival until 30 days. The end point was defined as mice death or the cachexia with the loss of 20% of the total weight that required the killing of the animal (as mentioned in the registration)."}},
  "data": [
    {"smiles": "Oc1cccc(-c2c3nc(c(-c4cccc(O)c4)c4ccc([nH]4)c(-c4cccc(O)c4)c4nc(c(-c5cccc(O)c5)c5ccc2[nH]5)CC4)C=C3)c1", "note": "[mTHPC, 5,10,15,20-Tetrakis(3-hydroxyphenyl)chlorin]", "values": [
      {"measurement": "mTHPC level in tumor tissue", "setting": "[1]; 4 h after IP injection", "value": "0.10±0.01", "unit": "ng/mg tissue"},
      {"measurement": "mTHPC level in tumor tissue", "setting": "[1]; 15 h after IP injection", "value": "0.15±0.04", "unit": "ng/mg tissue"},
      {"measurement": "mTHPC level in tumor tissue", "setting": "[1]; 24 h after IP injection", "value": "0.16±0.05", "unit": "ng/mg tissue"},
      {"measurement": "mTHPC level in tumor tissue", "setting": "[1]; 48 h after IP injection", "value": "0.10±0.00", "unit": "ng/mg tissue"},
      {"measurement": "tumor-to-organ ratio, total average", "setting": "[1]; average over all time points", "value": 2.5},
      {"measurement": "CD8 detection in tumor", "setting": "[2]; +laser", "value": "1.88%±0.2"},
      {"measurement": "CD31 expression (fluorescence signal)", "setting": "[2]; +laser", "value": "0.55·10^7±1.0·10^6"},
      {"measurement": "TUNEL mean fluorescence per mm^2 of tumor (apoptosis)", "setting": "[2]; +laser", "value": "2.17±0.2"},
      {"measurement": "anti CD3 labeling in tumor (T-lymphocyte infiltration)", "setting": "[2]; +laser", "value": "2.51%±0.3"},
      {"measurement": "macrophage intra-tumor invasion (anti F4/80)", "setting": "[2]; +laser", "value": "41.45%±2.2"},
      {"measurement": "mean Ki67-index", "setting": "[2]; +laser", "value": "26.2%±4.5"},
      {"measurement": "proliferation index reduced by a factor of", "setting": "[2]; photoactivated (+laser)", "value": 2},
      {"measurement": "CD8 detection in tumor", "setting": "[2]; without laser", "value": "0.44%±0.07"},
      {"measurement": "CD31 expression (fluorescence signal)", "setting": "[2]; without laser", "value": "1.06·10^7±1.4·10^6"},
      {"measurement": "TUNEL mean fluorescence per mm^2 of tumor (apoptosis)", "setting": "[2]; without laser", "value": "0.86±0.4"},
      {"measurement": "anti CD3 labeling in tumor (T-lymphocyte infiltration)", "setting": "[2]; without laser", "value": "0.33%±0.07"},
      {"measurement": "macrophage intra-tumor invasion (anti F4/80)", "setting": "[2]; without laser", "value": "13.19%±1.4"},
      {"measurement": "mean Ki67-index", "setting": "[2]; without laser", "value": "45.52±3.4", "unit": "%"},
      {"measurement": "dead mice 4 days after laser illumination (lethal toxicity)", "setting": "[3]; +laser, […]", "value": 91, "unit": "%"},
      {"measurement": "histological analysis after PDT (liver, kidney)", "setting": "[3]; non-vectorized PDT group", "value": "hepatic and kidney necrosis"}
    ]}
  ]
}
